Assay results taken from US4551532A, “Ethylene glycol derivatives having anti-protozoan, anti-fungal and anti-tumor activity” (priority 1980, dated 1985).
In brackets after ≈: the same amount, converted by molar mass. Like-named read-outs stand apart in the source and are kept apart here.

Assays:
Pyricularia oryzae = assay: microbe, parasite or virus in culture; type: cell-based
Cochliobolus miyabeanus = assay: antifungal activity, serial dilution method; type: cell-based; conditions: Bipolaris oryzae
Botrytis cinerea = assay: antifungal activity, serial dilution method; type: cell-based; conditions: Botrytis cinerea (gray mold); 1% glucose-bouillon agar
Leptosphaeria salvinii = assay: antifungal activity, serial dilution method; type: cell-based; conditions: Nakataea oryzae
Sclerotinia sclerotiorum = assay: antifungal activity, serial dilution method; type: cell-based; conditions: Sclerotinia sclerotiorum (kidney bean stem rot); 1% glucose-bouillon agar
[1] = system: Colletotrichum lagenarium; assay: antifungal activity, serial dilution method; type: cell-based; conditions: Colletotrichum orbiculare
Aspergillus niger = assay: antifungal activity, serial dilution method; type: cell-based
Penicillium = assay: antifungal activity, serial dilution method; type: cell-based, Penicillium niger
Saccharomyces cerevisiae = assay: antifungal activity, serial dilution method; type: cell-based
[2] = system: Tetrahymena pyriformis W strain; assay: antiprotozoal activity, broth dilution method; type: cell-based; conditions: 28° C., 44-48 hours, pH 7.0, read-out: Growth inhibition MIC Tetrahymena
Cryptococcus neoformans = assay: antimycotic activity, paper disk inhibition circle; type: cell-based; conditions: 48 h, 8 mm paper disk, 3 mg/ml, 37° C., 2 days, read-out: Growth inhibition Cryptococcus
Protocol: (§1) Referring to the antimycotic activity presented in Table 2, Cryptoccoccus neoformans and others were used as the test microbes, a paper disk (8 mm in diameter) was immersed in an aqueous solution of each test compound having a concentration of 3 mg/ml, air dried and placed on an agar medium, then incubation was conducted at 37° C. for 2 days, and the inhibition circle was measured. When the diameter of the inhibition circle was not larger than 8 mm, 8-10 mm, 10-20 mm, or larger than 20 mm, the activity was judged as -, ±, + or ++, respectively.

Hamigera = assay: antimycotic activity, paper disk inhibition circle; type: cell-based; conditions: 48 h; 8 mm paper disk, 3 mg/ml, 37° C., 2 days; read-out: Growth inhibition Hamigera
Protocol: as §1

Rhodotorula = assay: antimycotic activity, paper disk inhibition circle; type: cell-based; conditions: 48 h, 8 mm paper disk, 3 mg/ml, 37° C., 2 days, read-out: Growth inhibition Rhodotorula
Protocol: as §1

[3] = system: human myelocytic leukemia cells HL-60; assay: growth inhibiting effect (IG effect) on HL-60; type: cell-based; conditions: HL-60, 120 h, 5 day culture, read-out: IG effect on HL-60 GD50
[4] = Leptosphaeria salvinii (rice stem rot), 1% glucose-bouillon agar, read-out: MIC
[5] = Colletotrichum lagenarium (cucumber anthracnose), 1% glucose-bouillon agar, read-out: MIC
[6] = Aspergillus niger (black mold), 1% glucose-bouillon agar, read-out: MIC
[7] = Penicillium niger (blue mold), 1% glucose-bouillon agar, read-out: MIC
[8] = Saccharomyces cerevisiae (brewer's yeast), 1% glucose-bouillon agar, read-out: MIC

SMILES | MIC (Pyricularia oryzae) | MIC (Cochliobolus miyabeanus) | MIC (Botrytis cinerea) | MIC (Leptosphaeria salvinii; [4]) | MIC (Sclerotinia sclerotiorum) | MIC [1, 5] | MIC (Aspergillus niger; [6]) | MIC (Penicillium; [7]) | MIC [2] | zone of inhibition at 3000 µg/mL (Cryptococcus neoformans) | also measured
CCCCCCCCCCCCCOCCOCCOP(=O)([O-])OCC[N+](C)(C)C [Ex.] | 6.25 µg/mL (≈ 13.8 µM) | 25 µg/mL (≈ 55.1 µM) | 25 µg/mL (≈ 55.1 µM) | 12.5 µg/mL (≈ 27.6 µM) | 100 µg/mL (≈ 220 µM) | 3.12 µg/mL (≈ 6.88 µM) | 25 µg/mL (≈ 55.1 µM) | 12.5 µg/mL (≈ 27.6 µM) | – | – | MIC (Saccharomyces cerevisiae; [8]): 12.5 µg/mL (≈ 27.6 µM)
CCCCCCCCCCCCOCCOCCOCCOCCOCCOP(=O)([O-])OCC[n+]1ccccc1 [Example 2, 3,6,9,12,15-Pentaoxaheptacosyl 2-pyridinioethyl phosphate] | – | – | – | – | – | – | – | – | > 4 µg/mL | 8 to 10 mm | zone of inhibition at 3000 µg/mL (Hamigera): < 8 mm; zone of inhibition at 3000 µg/mL (Rhodotorula): 10 to 20 mm
CCCCCCCCCCCCOCCOCCOCCOCCOCCOP(=O)([O-])OCC[N+](C)(C)C [Example 3, 3,6,9,12,15-Pentaoxaheptacosyl 2-trimethylammonioethyl phosphate] | – | – | – | – | – | – | – | – | > 4 µg/mL | < 8 mm | –
CCCCCCCC/C=C\CCCCCCCCOCCOCCOP(=O)(O)OCCN [Example 5, 3,6-Dioxatetracos-15(Z)-enyl 2-aminoethyl phosphate] | – | – | – | – | – | – | – | – | 4 µg/mL | 8 to 10 mm | –
CCCCCCCC/C=C\CCCCCCCCOCCOCCOP(=O)(O)OCCNC(C)(C)C [Example 8, 3,6-Dioxatetracos-15(Z)-enyl 2-tert-butylaminoethyl phosphate] | – | – | – | – | – | – | – | – | > 4 µg/mL | – | –
CCCCCCCC/C=C\CCCCCCCCOCCOCCOCCOCCOP(=O)(O)OCCN [Example 10, 3,6,9,12-Tetraoxatriacont-21(Z)-enyl 2-aminoethyl phosphate] | – | – | – | – | – | – | – | – | > 4 µg/mL | 10 to 20 mm | IC50 [3]: 1 to 2 µg/mL
CCCCCCCCCCCCOCCOCCOP(=O)(O)OCCN [Example 12, 2-[2-(Dodecyloxy)ethoxy]ethyl 2-aminoethyl phosphate] | 100 µg/mL | 50 µg/mL | 50 µg/mL | – | 25 µg/mL | 25 µg/mL | 25 µg/mL | – | 2 to 4 µg/mL | > 20 mm | IC50 [3]: 5 µg/mL; zone of inhibition at 3000 µg/mL (Hamigera): 10 to 20 mm; zone of inhibition at 3000 µg/mL (Rhodotorula): 10 to 20 mm; MIC (Saccharomyces cerevisiae; [8]): 100 µg/mL
CCCCCCCCCCCCOCCOCCOCCOP(=O)(O)OCCN [Example 13, 3,6,9-Trioxaheneicosanyl 2-aminoethyl phosphate] | 100 µg/mL | 50 µg/mL | 50 µg/mL | – | 25 µg/mL | 25 µg/mL | 25 µg/mL | – | 4 µg/mL | 10 to 20 mm | zone of inhibition at 3000 µg/mL (Hamigera): 10 to 20 mm; zone of inhibition at 3000 µg/mL (Rhodotorula): 10 to 20 mm; MIC (Saccharomyces cerevisiae; [8]): 100 µg/mL
CCCCCCCCCCCCOCCOCCOCCOCCOP(=O)(O)OCCN [Example 14, 3,6,9,12-Tetraoxatetracosyanyl 2-aminoethyl phosphate] | – | – | – | – | – | – | – | – | 4 µg/mL | 10 to 20 mm | zone of inhibition at 3000 µg/mL (Hamigera): 10 to 20 mm; zone of inhibition at 3000 µg/mL (Rhodotorula): 10 to 20 mm
CCCCCCCCCCCCOCCOCCOCCOP(=O)([O-])OCC[n+]1ccccc1 [Example 16, 3,6,9-Trioxaheneicosanyl 2-pyridinioethyl phosphate] | 25 µg/mL | 25 µg/mL | 12.5 µg/mL | 25 µg/mL | 50 µg/mL | 12.5 µg/mL | 25 µg/mL | 12.5 µg/mL | > 4 µg/mL | > 20 mm | zone of inhibition at 3000 µg/mL (Hamigera): 10 to 20 mm; zone of inhibition at 3000 µg/mL (Rhodotorula): 10 to 20 mm; MIC (Saccharomyces cerevisiae; [8]): 50 µg/mL
CCCCCCCCCCCCCCCCCCOCCOCCOP(=O)([O-])OCC[N+](C)(C)C [Example 18, 3,6-Dioxatetracoxyl 2-trimethylammonioethyl phosphate] | 12.5 µg/mL | > 100 µg/mL | 25 µg/mL | – | > 100 µg/mL | > 100 µg/mL | > 100 µg/mL | > 100 µg/mL | ≥ 4 µg/mL | 10 to 20 mm | MIC (Leptosphaeria salvinii): 12.5 µg/mL
CCCCCCCCCCOCCOCCOP(=O)([O-])OCC[N+](C)(C)C [Example 21, 3,6-Dioxahexadecyl 2-trimethylammonioethyl phosphate] | – | – | – | – | – | – | – | – | 2 µg/mL | 10 to 20 mm | –
CCCCCCCCCCOCCOCCOP(=O)(O)OCCN [Example 22, 3,6-Dioxahexadecyl 2-aminoethyl phosphate] | – | – | – | – | – | – | – | – | 4 µg/mL | < 8 mm | –
CCCCCCCCCCCCCCOCCOCCOP(=O)(O)OCCN [Example 24, 3,6-Dioxaeicosyl 2-aminoethyl phosphate] | 25 µg/mL | 100 µg/mL | 25 µg/mL | > 100 µg/mL | 50 µg/mL | 25 µg/mL | 12.5 µg/mL | 6.25 µg/mL | 1 to 2 µg/mL | 10 to 20 mm | –
CCCCCCCCCCCCOCCOCCOP(=O)([O-])OCC[N+](C)(C)C [Example 25, 3,6-Dioxaoctadecyl 2-trimethylammonioethyl phosphate] | 12.5 µg/mL | 25 µg/mL | 6.25 µg/mL | 6.25 µg/mL | 25 µg/mL | 1.56 µg/mL | 25 µg/mL | – | 0.4 µg/mL | > 20 mm | MIC (Penicillium; Penicillium): 12.5 µg/mL; MIC (Saccharomyces cerevisiae; Saccharomyces cerevisiae): 12.5 µg/mL
CCCCCCCCCCCCCCOCCOCCOP(=O)([O-])OCC[N+](C)(C)C [Example 26, 3,6-Dioxaeicosyl 2-trimethylammonioethyl phosphate] | 3.12 µg/mL | 12.5 µg/mL | 6.25 µg/mL | 6.25 µg/mL | 50 µg/mL | 1.56 µg/mL | – | 6.25 µg/mL | 0.2 µg/mL | 10 to 20 mm | MIC (Aspergillus niger; Aspergillus niger): 12.5 µg/mL; MIC (Saccharomyces cerevisiae; [8]): 6.25 µg/mL
CCCCCCCCCCCCCOCCOCCOP(=O)([O-])OCC[n+]1ccccc1 [Example 28, 3,6-Dioxanonadecyl 2-pyridinioethyl phosphate] | 6.25 µg/mL | 25 µg/mL | 12.5 µg/mL | 12.5 µg/mL | 25 µg/mL | – | 25 µg/mL | 12.5 µg/mL | 4 µg/mL | > 20 mm | MIC [1]: 6.25 µg/mL
CCCCCCCCCCCCCOCCOCCOP(=O)([O-])OCC[N+](C)(C)C [Example 29, 3,6-Dioxanonadecyl 2-trimethylammonioethyl phosphate] | – | – | – | – | – | – | – | – | ≤ 1 µg/mL | > 20 mm | –
CCCCCCCCCCCCOCCOCCOP(=O)([O-])OCC[n+]1ccc2ccccc2c1 [Example 32, 3,6-Dioxaoctadecyl 2-isoquinolinioethyl phosphate] | – | – | – | – | – | – | – | – | 4 µg/mL | > 20 mm | –
CCCCCCCCCCCCCCOCCOCCOP(=O)([O-])OCC[n+]1ccccc1 [Example 34, 3,6-Dioxaeicosyl 2-pyridinioethyl phosphate] | – | – | – | – | – | – | – | – | 4 µg/mL | 10 to 20 mm | –
